# Data published in patent US10493077B2, “Fused imidazo-piperidine JAK inhibitor compound” (THERAVANCE BIOPHARMA R&D IP, LLC, priority 2017, dated 2019).
# Assays:
# [1] = target: T1, AURKA (Homo sapiens, UniProt O14965); assay: Kinome screen, AURKA; type: binding; settings: screened at 1 μM
# T1 construct: made in house; host or cells: T7 phage in E. coli (BL21-derived) or HEK-293
# Description: Kinase-tagged T7 phage strains were grown in parallel in 24-well blocks in an E. coli host derived from the BL21 strain. E. coli were grown to log-phase and infected with T7 phage from a frozen stock (multiplicity of infection=0.4) and incubated with shaking at 32° C. until lysis (90-150 minutes). The lysates were centrifuged (6,000×g) and filtered (0.2 μm) to remove cell debris. The remaining kinases were produced in HEK-293 cells and subsequently tagged with DNA for qPCR detection.
# Streptavidin-coated magnetic beads were treated with biotinylated small molecule ligands for 30 minutes at room temperature to generate affinity resins for kinase assays. The liganded beads were blocked with excess biotin and washed with blocking buffer (SeaBlock (Pierce), 1% BSA, 0.05% Tween 20, 1 mM DTT) to remove unbound ligand and to reduce non-specific phage binding. […] Test compounds were prepared as 40× stocks in 100% DMSO and directly diluted into the assay. All reactions were performed in polypropylene 384-well plates in a final volume of 0.04 ml. […] The beads were then re-suspended in elution buffer (1×PBS, 0.05% Tween 20, 0.5 μM non-biotinylated affinity ligand) and incubated at room temperature with shaking for 30 minutes. The kinase concentration in the eluates was measured by qPCR.
# [2] = tested on: IFNγ induced pSTAT1; assay: Pharmacodynamic assay: inhibition of IFNγ-induced pSTAT1 in rabbit eyes; type: in vivo; settings: rabbits
# Description: The ability of a single intravitreal administration of test compound to inhibit interferon-gamma (IFNγ) induced phosphorylation of STAT1 protein (pSTAT1) was measured in rabbit retina/choroid tissue.
# A suspension formulation was prepared by combining compound 1 of Example 2 (Form 1), with 0.5% hydroxypropyl methylcellulose (HPMC E5), 0.02% Tween 80, and 9 mg/mL sodium chloride in purified water to attain a target concentration of 20 mg/mL.
# Male, New Zealand White rabbits (Liveon Biolabs, India) were used for the studies. Animals were acclimated after arrival at the research facilities (Jubilant Biosys Ltd., India). Each rabbit was given a total of two intravitreal (IVT) injections with a total dose volume of 50 μL per eye. The first IVT injection (45 μL per eye) delivered 0.9 mg of test compound or vehicle. […] On the day of the injections, rabbits were anesthetized with an intramuscular injection of ketamine (35 mg/kg) and xylazine (5 mg/kg). Once deeply anesthetized, each eye was rinsed with sterile saline and IVT injections were performed using a 0.5 mL insulin syringe (50 units=0.5 mL) with a 31-gauge needle at the supra-nasal side of the both eyes by marking the position with a Braunstein fixed caliper (2¾″) 3.5 mm from the rectus muscle and 4 mm from the limbus.
# Tissues were collected 2 hours after the second IVT injection with IFNγ. Retina/choroid tissues (R/C) were collected and homogenized, and pSTAT1 levels were measured by quantitative Western Blot on the ProteinSimple WES instrument. The percent inhibition of IFNγ-induced pSTAT1 was calculated in comparison to the vehicle/vehicle and vehicle/IFNγ groups.
# Male, New Zealand White rabbits (Liveon Biolabs, India) were used for the studies. Animals were acclimated after arrival at the research facilities (Jubilant Biosys Ltd., India). Each rabbit was given a total of two intravitreal (IVT) injections with a total dose volume of 50 μL per eye. The first IVT injection (45 μL per eye) delivered 500 μg, 150 μg, or 50 μg of test compound or vehicle. Two weeks later, a second IVT injection (5 μL per eye) delivered IFNγ (1 μg/eye; stock solution 1 mg/mL; Kingfisher Biotech) or vehicle for the induction of IP-10. On the day of the injections, rabbits were anesthetized with an intramuscular injection of ketamine (35 mg/kg) and xylazine (5 mg/kg). Once deeply anesthetized, each eye was rinsed with sterile saline and IVT injections were performed using a 0.5 mL insulin syringe (50 units=0.5 mL) with a 31-gauge needle at the supra-nasal side of the both eyes by marking the position with a Braunstein fixed caliper (2¾″) 3.5 mm from the rectus muscle and 4 mm from the limbus.
# [3] = Lung and plasma pharmacokinetics in mice; type: in vivo, mouse; settings: BALB/c mice, Form 1 suspension 0.1 mg/mL, 50 μL by oral aspiration
# Description: Plasma and lung concentrations of compound 1 and ratios thereof were determined in the following manner. BALB/c mice from Charles River Laboratories were used in the assay. Compound 1 Form 1 of example 2 was formulated in 0.01% Tween 80 in normal saline (0.9% sodium chloride in water) at a concentration of 0.1 mg/mL as a suspension. 50 μL of the suspension formulation was introduced into the trachea of a mouse by oral aspiration. At various time points (0.083, 1, 4, 24, 48, 72, and 96 hr). Post dosing, blood samples were removed via cardiac puncture and intact lungs were excised from the mice. Blood samples were centrifuged (Eppendorf centrifuge, 5804R) for 4 minutes at approximately 12,000 rpm at 4° C. to collect plasma. Lungs were padded dry, weighed, and homogenized at a dilution of 1:3 in sterile water. Plasma and lung concentrations of compound 1 were determined by LC-MS analysis against analytical standards constructed into a standard curve in the test matrix. […] The lung half-life was calculated at approximately 40 hours. The lung to plasma ratio was determined as the ratio of the lung AUC in μg hr/g to the plasma AUC in μg hr/mL (where AUC is conventionally defined as the area under the curve of test compound concentration vs. time).
# T1 sequence (O14965 whole entry): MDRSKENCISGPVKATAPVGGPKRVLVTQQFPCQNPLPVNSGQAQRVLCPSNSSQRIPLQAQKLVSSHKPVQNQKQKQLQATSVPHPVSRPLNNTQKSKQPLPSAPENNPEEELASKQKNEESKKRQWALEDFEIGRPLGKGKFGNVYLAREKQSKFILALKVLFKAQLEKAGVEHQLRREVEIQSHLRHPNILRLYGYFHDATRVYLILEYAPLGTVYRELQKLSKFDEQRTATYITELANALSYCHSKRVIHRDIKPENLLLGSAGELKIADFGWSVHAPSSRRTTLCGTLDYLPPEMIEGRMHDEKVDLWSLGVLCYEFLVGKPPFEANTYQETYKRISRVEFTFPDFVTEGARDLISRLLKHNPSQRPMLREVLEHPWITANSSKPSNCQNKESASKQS
smiles,measurement,setting,value
"CCc1cc(O)c(F)cc1-c1cc(F)c2c(-c3nc4c([nH]3)CCN(C(=O)CN3CCOCC3)C4)n[nH]c2c1 [Compound 1, 1-(2-(6-(2-ethyl-5-fluoro-4-hydroxyphenyl)-4-fluoro-1H-indazol-3-yl)-1,4,6,7-tetrahydro-5H-imidazo[4,5-c]pyridin-5-yl)-2-morpholinoethan-1-one]",inhibition at 1 µM,[1],11%
same,inhibition of IFNγ-induced pSTAT1 in retina/choroid,"[2]; Form 1 suspension, 0.9 mg intravitreal, 1 week pre-treatment",85%
same,inhibition of IFNγ-induced pSTAT1 in retina/choroid,"[2]; Form 1 suspension, single intravitreal dose, 3 month pre-treatment",76%
same,inhibition of IFNγ-induced pSTAT1 in retina/choroid,"[2]; Form 2 suspension, 50 μg intravitreal, 2 week pre-treatment",61%
same,inhibition of IFNγ-induced pSTAT1 in retina/choroid,"[2]; Form 2 suspension, 150 μg intravitreal, 2 week pre-treatment",58%
same,inhibition of IFNγ-induced pSTAT1 in retina/choroid,"[2]; Form 2 suspension, 500 μg intravitreal, 2 week pre-treatment",79%
same,lung AUC (0-96 hr),[3],360 µg·h/g
same,Kp,"[3]; mouse, lung and plasma, 5 μg/mouse, read-out: lung to plasma AUC ratio",1780
same,half-life,"[3]; mouse, lung, 5 μg/mouse",~2400 min
